Key:
[1] = system: respiration in normal male volunteers; settings: Rapoport, et al. 1988; cited from earlier work
[2] = system: respiration in cats; settings: Garner, et al. 1989; cited from earlier work
[3] = system: patients suffering from obstructive sleep apnea; assay: Clinical experience: single dose of buspirone at bedtime in patients with obstructive sleep apnea; format: in vivo, human (patients)
Description: The effectiveness of azapirone treatment of patients suffering from sleep apneas can be exemplified by clinical experience with buspirone. […] One of the most consistent physiological measurements of improvement was a 10 to 20% increase in blood oxygen levels, an indication of improved respiratory efficiency.

[4] = single dose at bedtime, patients suffering from obstructive sleep apnea

For `O=C1CC2(CCCC2)CC(=O)N1CCCCN1CCN(c2ncccn2)CC1` [buspirone], the effect on respiration [1] is listed as “stimulatory effect on respiration”, the effect on respiration [2] is listed as “stimulatory effect on respiration” and the “effectiveness in treating sleep apneas” value ([3]; patients suffering from sleep apneas) is listed as “effective”. The “episodes of sleep disturbance” value [3, 4] was “marked reduction in episodes of sleep disturbance”, the sleep efficiency [3, 4] was “increased sleep efficiency” and the total sleep time [3, 4] was “gain in total sleep time”.
